Patent publication US10471080B2, “Use of trehalose for prevention of neural tube defects” (UNIVERSITY OF MARYLAND, BALTIMORE, priority 2012, dated 2019)
Each block holds one molecule with its values, some of them ahead of it.

Columns and labels:
[1] = test system: LC3-II; assay: LC3-II levels in cultured E8 embryos under high glucose with or without Chloroquine; details: high glucose 250 mg/dl, 25 μmol/L Chloroquine
[2] = test system: NTDs; details: cited from earlier work
[3] = test system: neuroepithelial cell apoptosis; assay: Pro-apoptotic Bcl-2 members, caspase cleavage and TUNEL assay in E8.75 embryos; assay type: in vivo, mouse; details: diabetic group with 5% trehalose
Experimental: TUNEL assay. TUNEL assay was performed as previously described (21, 22). Briefly, 5-μm serial coronal sections through the forebrain-midbrain (FB-MB) boundary of the anterior neural tube were fixed with 4% PFA in PBS and incubated with TUNEL reaction agents. Closure at the FB-MB boundary is an essential step for closure of the anterior neural tube, and failed closure in this area results in exencephaly (2, 8). TUNEL-positive cells were counted in the neural tube area of each section. Based on the counting of total cell nuclei, the sizes of the neural tube areas of each section were relatively constant. Thus, apoptotic cell numbers were expressed as total TUNEL-positive cells per neural tube area. TUNEL assays were performed without the observer knowing the experimental group of the embryo examined.

[4] = test system: 4-HNE, MDA, nitrotyrosine or ubiquitin-modified proteins; assay: Levels of oxidized and ubiquitin-modified (dysfunctional) proteins in E8.75 embryos; assay type: in vivo, mouse; details: diabetic group with 5% trehalose
[5] = test system: neuroepithelial cells; assay: Electron microscopy of autophagosomes and mitochondria in E8.75 neuroepithelia; assay type: in vivo, mouse
Source text: Electron microscopy. The structures of autophagosome and mitochondria were examined by transmission electron microscopy (EM) in the University of Maryland EM core facility. Thick sections (1 μm) were cut and visualized at ×100 magnifications to identify the neuroepithelia of E8.75 embryos. Thin sections (80 nm) of identified neuroepithelia were cut and viewed with an electron microscope (Joel JEM-1200EX; Tokyo, Japan) under high-power resolution (10, 12 and 25 K) for identification of cellular organelle structures.

[6] = test system: ULK1, Beclin 1, Atg3, Atg5, Ambra1, p62, Dap; assay: Autophagy-related gene expression in E8.75 embryos; assay type: in vivo, mouse; details: diabetic group
[7] = Trehalose measurement in maternal serum and embryos (Trehalose Kit, Megazyme); assay type: in vivo, mouse; details: diabetic dams
Experimental: (§1) Trehalose treatment and trehalose measurement. Concentrations of either 2% or 5% (gram/volume [ml]) trehalose (Cat#: T9531, Sigma) were given to WT nondiabetic and diabetic pregnant mice at E5.5 in drinking water. Trehalose levels in maternal serum and embryos were determined by the Trehalose Kit from Megazyme (Wicklow, Ireland).

[8] = test system: neurogenesis in the developing neural tube; assay: Immunofluorescent staining of TuJ1 and Sox1 in developing neural tubes (neurogenesis); assay type: in vivo, mouse; details: neural tubes exposed to diabetes
Experimental: Immunofluorescent staining. […] Deparaffinized sections were incubated with TuJ 1 antibody (Covance, #MMS-435P) at 1:400 dilution or Sox1 antibody (Cell Signaling, #4194) at 1:100 dilution in PBS with 10% heat-inactivated donkey serum overnight at 4° C. After washes in PBS, sections were incubated with secondary antibodies, Alexa Fluor® 488 Donkey Anti-Mouse IgG to TuJ1, and Alexa Fluor® 594 Donkey Anti-Rabbit IgG to Sox1. Cell nuclei were stained with DAPI (Blue). Immunofluorescent staining was examined by immunofluorescence microscopy. In order to visualize neurogenesis throughout the anterior neural tube, serial sections through the entire anterior neural tube were analyzed and representative images were shown. The earliest neurogenesis site was found at the boundary of midbrain and hindbrain. Five embryos from five dams per group were analyzed.

[9] = test system: ER stress and JNK1/2 activation; assay: ER stress markers and JNK1/2 activation in E8.75 embryos; assay type: in vivo, mouse; details: diabetic group with 5% trehalose
[10] = test system: autophagy; details: in vitro; cited from earlier work
[11] = test system: embryonic neuroepithelial cells; assay: GFP-LC3 puncta analysis in GFP-LC3 transgenic mice; assay type: in vivo, mouse
Experimental: GFP-LC3 puncta analysis. GFP-LC3 transgenic (Tg) mice were used to quantify autophagy in vivo. E8.75 embryos were gathered, fixed in 4% paraformaldehyde (PFA) in PBS for 30 min at 4° C., quickly frozen, and cryosectioned at […] GFP florescent images in embryonic neuroepithelial cells were recorded by confocal microscopy using a laser scanning microscope (LSM 510 META, ZEISS). GFP-LC3 punctate foci with a diameter greater than or equal to 20 pixels in each cell were calculated by Image J software according to the manufacturer's manual.

[12] = test system: maternal diabetes-induced NTDs; assay: In vivo mouse model of diabetic embryopathy, morphologic assessment of NTDs at E11.5
Experimental: In vivo mouse model of diabetic embryopathy and morphologic assessment of NTDs. The mouse model of diabetic embryopathy was previously described (21, 22). Briefly, female mice were intravenously (i.v.) injected daily with 75 mg/kg streptozotocin (STZ) over two days to induce diabetes. Nondiabetic WT with vehicle injection served as controls. Diabetes was defined as 12-hour fasting blood glucose levels ≥250 mg/dl, which normally occurred at 3-5 days after STZ injections. There is no residual toxic effect caused by STZ in this animal model. Embryos were gathered at E8.75 (2:00 PM at E8.5) for analysis and at E11.5 from NTD examination.
as §1
Statistical analyses. Statistical differences were determined by Student's t-test for two group comparisons and One way ANOVA for more than two groups comparisons using SigmaStat 3.5 software. In ANOVA analysis, Tukey-test was used to estimate the significance of the results. Significant difference between groups in NTD incidence was analyzed by Chi-square test.

[13] = test system: LC3-II; assay: LC3-II levels in E8.75 embryos; assay type: in vivo, mouse; details: E8.75 embryos of diabetic dams

SMILES: CCN(CC)CCCC(C)Nc1ccnc2cc(Cl)ccc12 (centres unmarked) [Chloroquine]
- high glucose-induced LC3-II reduction [1]: did not block high glucose-induced LC3-II reduction

SMILES: O[C@H]1[C@H](O)[C@@H](O)[C@H](O)[C@@H](O)[C@H]1O [inositol]
- folate-resistant NTDs [2]: can prevent some of the folate-resistant NTDs

- embryonic trehalose levels ([7]; 2% group): 15.8±1.0 μg/g tissue
- trehalose in maternal blood ([7]; 2% trehalose in drinking water): 162.0 ± 16.9 µg/mL
- embryonic trehalose levels ([7]; 5% group): 53.9±3.7 μg/g tissue
- trehalose in maternal blood ([7]; 5% trehalose in drinking water): 503.9 ± 19.3 µg/mL
- Resorption Rates ([12]; Diabetic + 2% trehalose, E11.5): 4.7
- Resorption Rates ([12]; Nondiabetic + 2% trehalose, E11.5): 4.8
- Resorption Rates ([12]; nondiabetic and diabetic dams with or without trehalose treatments): did not differ
SMILES: OC[C@H]1O[C@H](O[C@H]2O[C@H](CO)[C@@H](O)[C@H](O)[C@H]2O)[C@H](O)[C@@H](O)[C@@H]1O [trehalose]
- BID cleavage [3]: prevented
- caspase 3 and 8 cleavage [3]: abolished maternal diabetes-induced caspase 3 and 8 cleavage
- level of phosphorylated Bad [3]: restored
- neuroepithelial cell apoptosis (TUNEL) [3]: blocked neuroepithelial cell apoptosis
- levels of 4-HNE, MDA, nitrotyrosine or ubiquitin-modified proteins [4]: blocked maternal diabetes-increased levels of all of these modified proteins
- number of defective mitochondria ([5]; diabetic conditions, E8.75 neuroepithelia): significantly reduced the number of defective mitochondria to a level comparable to that in the nondiabetic control group
- autophagosome formation in neuroepithelial cells ([5]; diabetic group, E8.75): blocked maternal diabetes-repressed autophagosome formation
- expression of ULK1, Beclin 1, Atg3, Atg5, and Ambra1 [6]: blocked the downregulation
- expression of p62 and Dap [6]: blocked
- differentiation of Sox1 positive neural progenitors [8]: corrected maternal diabetes-blocked differentiation of Sox1 positive neural progenitors
- neurogenesis (TuJ1 expressing neurons) ([8]; E9.0 to E10.5): reversed delayed neurogenesis
- JNK1/2 activation and downstream effector c-Jun [9]: completely abolished maternal diabetes-induced JNK1/2 activation
- XBP1 mRNA splicing [9]: diminished XBP1 mRNA splicing
- expression or phosphorylation of ER chaperone proteins BiP, CHOP, eIF2α [9]: abrogated maternal diabetes-increased expression or phosphorylation
- expression of 7 ER chaperone genes ([9]; mRNA): abolished
- autophagy stimulating activities [10]: possess autophagy stimulating activities in vitro
- number of autophagic GFP-LC3 puncta in neuroepithelial cells ([11]; diabetic group treated with trehalose, E8.75): restored to the level of that observed in the nondiabetic groups
- basal autophagy activities in neuroepithelial cells ([11]; nondiabetic group): did not affect basal autophagy activities
- maternal diabetes-induced NTDs ([12]; 2% trehalose, diabetic dams, lesser extent than 5%): significantly reduced maternal diabetes-induced NTDs
- NTD rate ([12]; Diabetic + 2% trehalose in drinking water from E5.5, E11.5, total NTD embryos/total embryos): 9.8%
- Total NTD Embryos ([12]; Diabetic + 2% trehalose, E11.5, of 41 total embryos): 4
- NTD rate ([12]; Nondiabetic + 2% trehalose in drinking water from E5.5, E11.5, total NTD embryos/total embryos): 0%
- Total NTD Embryos ([12]; Nondiabetic + 2% trehalose, E11.5, of 29 total embryos): 0
- NTD rate ([12]; embryos from diabetic dams treated with 5% trehalose water (weight/volume), calculated by litters): 4.0±2.2%
- NTD rate ([12]; embryos from nondiabetic dams with or without trehalose treatment): 0.0±0.0%
- LC3-II expression [13]: restored maternal diabetes-diminished LC3-II expression
